In patent US20140275010A1, “QUATERNARY SALTS” (priority 2013, published 2014):
pIC50: −log10 of the molar value.

Experiments:
[1] = system: WiDr cells: Colon cancer cells (wildtype SF3B1); assay: Cell viability assay (CellTiter-Glo), WiDr cells; format: cell-based; settings: 72 hr
Protocol: (§1) Cells are seeded in 96-well plate with 2000 cells/100 uL/well and incubated overnight. Spent media was removed and fresh media containing compound (100 uL/well) with appropriate 9 concentrations are added. Each compound was treated in duplicate or triplicate manner at each concentration. DMSO concentration was adjusted to be 0.1%. Another plate was dedicated as Tz plate which was added 0.1% DMSO in media (100 uL/well) followed by CellTiter-Glo® (Promega corp., 50 uL/well) for ATP measurement as a surrogate of cell viability. Values from this plate are used as Tz. Compound treated plates are incubated for 72 hr at 37 C. Then, CellTiter-Glo® (50 uL/well) was added and ATP level was measured. Values from compound treated wells are used as Ti and DMSO treated wells are used as C.
(§2) Percentage growth inhibition was calculated as:
(§3) [(Ti−Tz)/(C−Tz)]×100 for concentrations for which Ti>/=Tz
(§4) [(Ti−Tz)/Tz]×100 for concentrations for which Ti<Tz.
(§5) *[time zero, (Tz), control growth (C), and test growth in the presence of drug with dose (Ti)] Growth inhibition of 50% (GI50) was calculated from [(Ti−Tz)/(C−Tz)]×100=50, which was the drug concentration resulting in a 50% reduction in the net protein increase in control cells during the drug incubation. The LC50 (concentration of drug resulting in a 50% reduction in the measured value at the end of the drug treatment as compared to that at the beginning) indicating a net loss of cells following treatment was calculated from [(Ti−Tz)/Tz]×100=−50.
(§6) Emax was defined as highest growth inhibition that particular compound achieved in tested dose range.

[2] = system: Ad2 pre-mRNA splicing in HeLa nuclear extract; assay: In vitro splicing (biochemical) assay; settings: in vitro splicing of Ad2 pre-mRNA, 30° C., 90 min, read-out: Biochem IC50
Protocol: In Vitro Splicing (Biochemical) Assay Protocol
Biotin-labeled pre-mRNA of an adenovirus type 2 construct with a deletion of intervening sequence (Ad2)^1 was prepared by in vitro transcription. The Ad2 construct containing Exon 1 (41 nt), Intron (231 nt), and Exon 2 (72 nt) was generated by gene synthesis and cloned into the EcoRI and XbaI sites of pGEM-3Z (Promega) by Genewiz. The plasmid was then linearized by XbaI digestion and purified. In vitro transcription and purification of transcribed pre-mRNA were performed using the MEGAScript T7 kit (Invitrogen) and MEGAclear kit (Invitrogen), respectively, following the manufacturer instructions. The ratio of biotin-16-UTP (Roche) to cold UTP was 1:13 to incorporate approximately two biotin molecules per spliced Ad2 mRNA.
In vitro splicing assay was performed at 30° C. in 25 μL reaction mixtures containing 95 μg HeLa nuclear extract (Promega), 47 nM Ad2 pre-mRNA, 25 U RNasin RNase inhibitor (Promega), 1×SP buffer (0.5 mM ATP, 20 mM creatine phosphate, 1.6 mM MgCl2), and compounds in DMSO (with 1% final concentration of DMSO). After 90 min of incubation, the reaction was stopped by addition of 18 μL of 5M NaCl, and the mixtures were incubated with 10 μL of M-280 streptavidin-coated magnetic beads (Invitrogen) for 30 min at room temperature to capture Ad2 pre- and spliced mRNA. The beads were washed twice with 100 uL buffer containing 10 mM Tris pH=7.5, 1 mM EDTA and 2M NaCl, and then incubated in RNA gel loading buffer containing 95% formamide at 70° C. for 10 min to elute the RNAs. Ad2 RNAs were resolved by 6% TBE-UREA gel, transferred to a nylon membrane, UV cross-linked, and probed with an IR-dye labeled streptavidin (LiCor) using LiCor detection. The amount of spliced RNA was quantified by measuring the band fluorescent intensity using LiCor software.

[3] = system: Panc 05.04 cells: Pancreatic cancer cells (Q699H and K700E mutations in SF3B1); assay: Cell viability assay (CellTiter-Glo), Panc 05.04 cells; format: cell-based; settings: 72 hr; for Gl50 Panc 05.04: Panc 05.04 pancreatic cancer cells, SF3B1 Q699H and K700E, CellTiter-Glo; for Emax Panc 05.04: highest growth inhibition achieved in tested dose range
Protocol: as §1, §2, §3, §4, §5, §6

[4] = system: WiDr-R cells: Colon cancer cells (chemically-induced SF3B1 mutant which is resistant to E7107 (R1074H mutation)); assay: Cell viability assay (CellTiter-Glo), WiDr-R cells; format: cell-based; settings: 72 hr
Protocol: as §1, §2, §3, §4, §5, §6

[5] = system: reporter gene controlled by human VEGF promoter; settings: read-out: IC50, inhibition of VEGF-promoted gene expression; cited from earlier work
U251 human glioma cells = U251 human glioma cells in vitro; read-out: IC50, inhibition of glioma cell proliferation; cited from earlier work

pIC50 [2]	Compound	Gl50 WiDr [1] [nM]	Gl50 Panc 05.04 [3] [nM]	Emax Panc 05.04 [3] [%]	Gl50 WiDr-R [4] [nM]	pIC50 [5]	pIC50 (U251 human glioma cells)
7.22	CC[C@H](O)[C@@H](C)[C@H]1O[C@@H]1C[C@H](C)/C=C/C=C(\C)[C@H]1OC(=O)C[C@H](O)CC[C@@](C)(O)[C@@H](OC(=O)N2CC[N+](C)(C(C)C)CC2)/C=C/[C@@H]1C.[I-] [Cpd. 3]	2.8	16.2	−66	>100		
7.22	CC[C@H](O)[C@@H](C)[C@H]1O[C@@H]1C[C@H](C)/C=C/C=C(\C)[C@H]1OC(=O)C[C@H](O)CC[C@@](C)(O)[C@@H](OC(=O)N2CCC[N+](C)(C(C)C)CC2)/C=C/[C@@H]1C.[I-] (some centres unmarked) [Cpd. 10]	1.9	1.3	−65	>1000		
	CCC(O)C(C)C1OC1CC(C)/C=C/C=C(\C)C1OC(=O)CC(O)CCC(C)(O)C(OC(C)=O)/C=C/C1C (centres unmarked) [Pladienolide B]					8.74	8.46

Compound	pIC50 [2]	Gl50 WiDr [1] [nM]	Gl50 Panc 05.04 [3] [nM]	Emax Panc 05.04 [3] [%]	Gl50 WiDr-R [4] [nM]	pIC50 [5]	pIC50 (U251 human glioma cells)
CC[C@H](O)[C@@H](C)[C@H]1O[C@@H]1C[C@@](C)(O)/C=C/C=C(\C)[C@H]1OC(=O)C[C@H](O)CC[C@@](C)(O)[C@@H](OC(=O)N2CC[N+](C)(C3CCCCCC3)CC2)/C=C/[C@@H]1C.[I-] [Cpd. 17]	> 7.00	64.5	607.8	−47	>1000		
